In brackets after ≈: the same amount, converted by molar mass. Activity calls are given as the source filed them. The calls are words filed in the database; no cut-off is given here.
Assays:
[1] = target: Platelet-derived growth factor receptor beta (Homo sapiens, UniProt P09619); assay: Inhibition of wild type partial length human PDGFRbeta (V582 to Y1009 residues) expressed in bacterial expression system using Ulight-p70S6K peptide substrate incubated for 90 mins in presence of ATP by HTRF assay
Chain of Platelet-derived growth factor receptor beta (P09619 whole entry, the tested form may be a part): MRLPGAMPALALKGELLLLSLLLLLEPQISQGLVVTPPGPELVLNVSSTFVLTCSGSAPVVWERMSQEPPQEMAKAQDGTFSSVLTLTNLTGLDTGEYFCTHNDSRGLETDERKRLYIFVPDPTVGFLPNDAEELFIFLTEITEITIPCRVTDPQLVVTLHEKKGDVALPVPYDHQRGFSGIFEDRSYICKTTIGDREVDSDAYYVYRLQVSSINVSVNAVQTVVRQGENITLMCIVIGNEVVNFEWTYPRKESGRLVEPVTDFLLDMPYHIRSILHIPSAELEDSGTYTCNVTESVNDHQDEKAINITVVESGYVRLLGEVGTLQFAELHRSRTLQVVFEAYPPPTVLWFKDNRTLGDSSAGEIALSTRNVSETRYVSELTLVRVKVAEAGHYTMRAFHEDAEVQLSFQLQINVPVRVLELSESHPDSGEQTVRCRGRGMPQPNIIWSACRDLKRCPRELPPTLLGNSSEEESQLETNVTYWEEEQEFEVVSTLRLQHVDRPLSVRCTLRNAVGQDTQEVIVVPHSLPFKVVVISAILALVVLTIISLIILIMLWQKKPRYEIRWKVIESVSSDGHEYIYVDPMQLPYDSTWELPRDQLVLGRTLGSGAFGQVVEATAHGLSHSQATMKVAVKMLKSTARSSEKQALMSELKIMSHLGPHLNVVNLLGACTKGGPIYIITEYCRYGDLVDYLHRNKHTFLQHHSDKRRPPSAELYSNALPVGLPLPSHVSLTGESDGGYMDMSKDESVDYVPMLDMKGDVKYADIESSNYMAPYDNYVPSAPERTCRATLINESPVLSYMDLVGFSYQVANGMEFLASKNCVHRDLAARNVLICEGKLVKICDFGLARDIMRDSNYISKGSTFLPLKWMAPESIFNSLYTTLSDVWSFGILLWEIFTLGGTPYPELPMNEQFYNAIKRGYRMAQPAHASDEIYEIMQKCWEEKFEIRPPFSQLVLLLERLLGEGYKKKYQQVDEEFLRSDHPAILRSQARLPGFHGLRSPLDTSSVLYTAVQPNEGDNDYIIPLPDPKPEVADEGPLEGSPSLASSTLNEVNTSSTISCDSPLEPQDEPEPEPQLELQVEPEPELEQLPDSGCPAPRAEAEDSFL

[2] = target: High affinity nerve growth factor receptor (Homo sapiens, UniProt P04629); assay: Inhibition of wild type partial length human TRKA (G475 to G790 residues) expressed in mammalian expression system using Ulight-p70S6K peptide substrate incubated for 90 mins in presence of ATP by HTRF assay
Chain of High affinity nerve growth factor receptor (P04629 whole entry, the tested form may be a part): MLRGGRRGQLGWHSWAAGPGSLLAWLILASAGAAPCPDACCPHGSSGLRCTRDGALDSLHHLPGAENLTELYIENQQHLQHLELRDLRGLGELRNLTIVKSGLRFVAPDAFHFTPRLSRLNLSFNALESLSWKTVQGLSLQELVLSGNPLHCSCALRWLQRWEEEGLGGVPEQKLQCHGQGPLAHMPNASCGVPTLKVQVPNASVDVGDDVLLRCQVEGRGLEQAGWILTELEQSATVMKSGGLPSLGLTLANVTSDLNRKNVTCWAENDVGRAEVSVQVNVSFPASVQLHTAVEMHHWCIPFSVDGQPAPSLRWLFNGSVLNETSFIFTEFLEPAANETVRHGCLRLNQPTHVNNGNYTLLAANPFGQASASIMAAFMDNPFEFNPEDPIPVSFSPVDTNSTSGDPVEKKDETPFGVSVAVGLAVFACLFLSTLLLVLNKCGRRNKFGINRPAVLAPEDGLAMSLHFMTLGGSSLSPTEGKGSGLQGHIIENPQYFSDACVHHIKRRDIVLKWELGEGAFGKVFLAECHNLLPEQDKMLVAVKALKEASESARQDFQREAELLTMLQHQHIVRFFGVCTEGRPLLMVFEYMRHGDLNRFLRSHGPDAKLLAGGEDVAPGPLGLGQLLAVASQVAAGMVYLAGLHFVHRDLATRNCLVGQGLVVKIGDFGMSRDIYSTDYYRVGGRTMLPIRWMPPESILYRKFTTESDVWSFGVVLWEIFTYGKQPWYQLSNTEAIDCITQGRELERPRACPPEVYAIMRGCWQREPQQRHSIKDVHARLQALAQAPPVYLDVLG

[3] = target: Mast/stem cell growth factor receptor Kit (Homo sapiens, UniProt P10721); assay: Inhibition of wild type partial length human KIT (I571 to D952 residues) expressed in bacterial expression system using Ulight-p70S6K peptide substrate incubated for 90 mins in presence of ATP by HTRF assay
Chain of Mast/stem cell growth factor receptor Kit (P10721 whole entry, the tested form may be a part): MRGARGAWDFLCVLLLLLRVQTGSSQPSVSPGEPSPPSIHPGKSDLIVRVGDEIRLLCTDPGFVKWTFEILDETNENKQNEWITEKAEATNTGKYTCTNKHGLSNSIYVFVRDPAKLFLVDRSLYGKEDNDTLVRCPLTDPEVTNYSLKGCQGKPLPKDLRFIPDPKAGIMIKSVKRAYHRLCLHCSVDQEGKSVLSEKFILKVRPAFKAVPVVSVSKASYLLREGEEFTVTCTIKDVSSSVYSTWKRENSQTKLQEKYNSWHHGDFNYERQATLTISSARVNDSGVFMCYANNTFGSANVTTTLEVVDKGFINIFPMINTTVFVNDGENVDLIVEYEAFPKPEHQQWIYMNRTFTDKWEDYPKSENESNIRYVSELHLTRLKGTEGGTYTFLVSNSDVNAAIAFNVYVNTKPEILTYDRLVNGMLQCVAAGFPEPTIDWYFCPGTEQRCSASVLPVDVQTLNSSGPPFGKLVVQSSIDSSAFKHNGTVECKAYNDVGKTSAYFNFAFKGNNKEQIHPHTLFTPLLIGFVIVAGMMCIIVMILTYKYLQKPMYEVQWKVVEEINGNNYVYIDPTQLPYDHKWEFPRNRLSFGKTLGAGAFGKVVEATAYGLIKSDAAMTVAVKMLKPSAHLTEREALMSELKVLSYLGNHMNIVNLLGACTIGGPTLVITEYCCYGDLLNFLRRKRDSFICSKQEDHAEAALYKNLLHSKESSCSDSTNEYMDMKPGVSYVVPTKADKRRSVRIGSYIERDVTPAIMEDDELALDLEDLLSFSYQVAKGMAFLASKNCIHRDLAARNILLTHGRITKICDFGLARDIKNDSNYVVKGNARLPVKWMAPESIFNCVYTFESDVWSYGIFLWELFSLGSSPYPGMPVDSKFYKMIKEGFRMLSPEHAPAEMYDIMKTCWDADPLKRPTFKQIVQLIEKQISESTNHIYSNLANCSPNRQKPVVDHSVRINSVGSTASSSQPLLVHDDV

[4] = target: Fibroblast growth factor receptor 2 (Homo sapiens, UniProt P21802); assay: Inhibition of N-terminal GST tagged recombinant human FGFR2 (400 to 821 residues) expressed in an Sf9 infected baculovirus expression system using biotin-EQEDEPEGDYFEWLE-amide as substrate preincubated for 5 to 10 mins followed by substrate addition and measured after 1 hr by HTRF assay
Chain of Fibroblast growth factor receptor 2 (P21802 whole entry, the tested form may be a part): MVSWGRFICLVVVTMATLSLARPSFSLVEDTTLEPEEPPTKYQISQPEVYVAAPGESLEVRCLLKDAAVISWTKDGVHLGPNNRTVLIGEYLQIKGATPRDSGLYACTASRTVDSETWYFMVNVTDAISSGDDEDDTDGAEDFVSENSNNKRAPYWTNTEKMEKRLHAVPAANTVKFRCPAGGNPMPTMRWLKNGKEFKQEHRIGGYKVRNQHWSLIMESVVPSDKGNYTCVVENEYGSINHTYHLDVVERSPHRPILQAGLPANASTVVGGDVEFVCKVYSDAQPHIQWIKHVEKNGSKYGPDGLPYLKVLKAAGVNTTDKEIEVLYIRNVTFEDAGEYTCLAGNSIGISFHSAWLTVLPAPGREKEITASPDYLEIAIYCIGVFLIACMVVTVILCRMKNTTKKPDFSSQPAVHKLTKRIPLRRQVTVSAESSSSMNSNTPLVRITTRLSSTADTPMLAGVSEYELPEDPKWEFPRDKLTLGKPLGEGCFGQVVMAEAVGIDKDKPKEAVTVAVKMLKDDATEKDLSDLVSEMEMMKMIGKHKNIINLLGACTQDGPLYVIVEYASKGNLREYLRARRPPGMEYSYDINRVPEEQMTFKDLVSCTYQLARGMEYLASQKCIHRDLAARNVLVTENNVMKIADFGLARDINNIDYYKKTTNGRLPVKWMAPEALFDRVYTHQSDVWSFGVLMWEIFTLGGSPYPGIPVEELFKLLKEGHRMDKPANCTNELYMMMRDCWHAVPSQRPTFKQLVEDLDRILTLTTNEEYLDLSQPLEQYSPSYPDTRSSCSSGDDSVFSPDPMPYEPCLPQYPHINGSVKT

[5] = Apparent permeability in human Caco-2 cells at 50 uM incubated for 120 mins by LC-MS/MS analysis; format: ADME, cell-based
CYP3A4 = CYP3A4 (Homo sapiens, UniProt P08684); assay: Inhibition of human liver microsomes CYP3A4 at 5 uM using midazolam or testosterone as substrate in presence of NADPH regenerating system by LC-MS/MS analysis relative to control; format: ADME, Microsome; conditions: probe midazolam or testosterone
Chain of CYP3A4 (P08684 whole entry): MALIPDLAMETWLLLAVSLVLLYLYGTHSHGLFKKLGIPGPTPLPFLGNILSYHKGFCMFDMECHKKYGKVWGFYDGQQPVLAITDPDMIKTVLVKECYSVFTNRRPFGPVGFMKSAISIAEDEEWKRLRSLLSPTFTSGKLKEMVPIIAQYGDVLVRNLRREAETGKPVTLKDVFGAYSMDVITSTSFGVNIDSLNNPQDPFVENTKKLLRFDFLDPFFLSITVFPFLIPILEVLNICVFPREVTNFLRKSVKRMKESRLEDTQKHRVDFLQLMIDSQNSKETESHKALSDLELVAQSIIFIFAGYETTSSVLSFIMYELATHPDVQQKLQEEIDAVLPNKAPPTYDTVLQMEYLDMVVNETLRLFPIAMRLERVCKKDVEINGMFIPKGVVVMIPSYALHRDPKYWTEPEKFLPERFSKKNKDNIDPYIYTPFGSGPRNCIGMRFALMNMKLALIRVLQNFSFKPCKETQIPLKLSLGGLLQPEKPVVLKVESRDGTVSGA

Cytochrome P450 3A4 = Cytochrome P450 3A4 (Homo sapiens, UniProt P08684); assay: Inhibition of human liver microsomes CYP3A4 using midazolam or testosterone as substrate in presence of NADPH regenerating system by LC-MS/MS analysis; design: species or system Microsome
Chain of Cytochrome P450 3A4 (P08684 whole entry): as above

Mus musculus = assay: In vivo inhibition of ERK phosphorylation in human UMUC14 cells xenografted with NSG mouse at 100 mg/kg, po measured after 2 hrs by MSD assay; format: functional, organism-based
[6] = Solubility of compound in FaSSIF by HPLC assay; format: physicochemical
[7] = Solubility of compound in SGF by HPLC assay; format: physicochemical
[8] = AUC in Sprague-Dawley rat at 3.1 mg/kg, po measured upto 24 hrs by LC-MS/MS analysis; format: ADME, organism-based; design: time < 24 hrs, dose 3.1 mg/kg, route po; conditions: in vivo
[9] = Volume of distribution at steady state in Sprague-Dawley rat at 0.73 mg/kg, iv measured upto 24 hrs by LC-MS/MS analysis; format: ADME, organism-based; conditions: in vivo, read-out: Vdss
[10] = Cmax in Sprague-Dawley rat at 3.1 mg/kg, po measured upto 24 hrs by LC-MS/MS analysis; format: ADME, organism-based; design: time < 24 hrs, dose 3.1 mg/kg, route po; conditions: in vivo
[11] = Oral bioavailability in Sprague-Dawley rat at 3.1 mg/kg measured upto 24 hrs by LC-MS/MS analysis; format: ADME, organism-based; conditions: in vivo
[12] = Half life in Sprague-Dawley rat at 0.73 mg/kg, iv measured upto 24 hrs by LC-MS/MS analysis; format: ADME, organism-based; conditions: in vivo
[13] = Clearance in Sprague-Dawley rat assessed as hepatic blood flow at 0.73 mg/kg, iv measured upto 24 hrs by LC-MS/MS analysis; format: ADME, organism-based; conditions: in vivo
[14] = target: Fibroblast growth factor receptor 4 (Homo sapiens, UniProt P22455); assay: Inhibition of recombinant human FGFR4 (460 to 802 residues) using biotin-EQEDEPEGDYFEWLE-amide as substrate preincubated for 5 to 10 mins followed by substrate addition and measured after 1 hr by HTRF assay
Chain of Fibroblast growth factor receptor 4 (P22455 whole entry, the tested form may be a part): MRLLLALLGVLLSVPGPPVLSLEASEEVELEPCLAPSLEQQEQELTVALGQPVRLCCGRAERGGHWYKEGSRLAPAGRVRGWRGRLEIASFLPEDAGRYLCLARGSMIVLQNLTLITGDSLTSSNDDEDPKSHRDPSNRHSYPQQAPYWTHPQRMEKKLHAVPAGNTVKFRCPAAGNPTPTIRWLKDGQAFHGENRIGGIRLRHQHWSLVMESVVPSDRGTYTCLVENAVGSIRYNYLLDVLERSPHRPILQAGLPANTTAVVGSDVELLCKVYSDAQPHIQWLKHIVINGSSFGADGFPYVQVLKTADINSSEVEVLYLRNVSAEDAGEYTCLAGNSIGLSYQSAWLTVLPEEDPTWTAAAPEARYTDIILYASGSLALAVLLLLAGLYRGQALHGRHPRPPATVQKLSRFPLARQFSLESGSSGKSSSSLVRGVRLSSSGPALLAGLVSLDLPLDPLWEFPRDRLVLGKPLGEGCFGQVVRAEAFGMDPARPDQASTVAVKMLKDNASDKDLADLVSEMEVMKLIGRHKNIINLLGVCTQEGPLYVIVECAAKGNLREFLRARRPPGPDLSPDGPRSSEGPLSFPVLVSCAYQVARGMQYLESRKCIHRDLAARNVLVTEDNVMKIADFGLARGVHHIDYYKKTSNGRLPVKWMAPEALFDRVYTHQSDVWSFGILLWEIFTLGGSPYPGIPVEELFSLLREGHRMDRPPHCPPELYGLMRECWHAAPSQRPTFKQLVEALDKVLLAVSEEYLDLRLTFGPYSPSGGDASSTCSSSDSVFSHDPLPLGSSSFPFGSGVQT

Structure (SMILES) | IC50 [1] [nM] | IC50 [2] [nM] | IC50 [3] [nM] | Papp at 2 h, 50 µM [5] [×10⁻⁶ cm/s] | IC50 (Cytochrome P450 3A4) [nM] | also measured
CNC(=O)c1cc(C)cc(-c2cnc3cc(-c4cnn(C(C)C)c4)c(O[C@H]4CCOC4)nn23)c1 | 126 | 363 | 22 | – | – | –
[2H]C([2H])([2H])NC(=O)c1cncc(-c2cnn3cc(-c4ccn(C(C)C)n4)c(N[C@H]4CCOC4)nc23)c1 | – | – | – | – | – | IC50 [4]: 0.2 nM
CNC(=O)c1cncc(-c2cnn3cc(-c4cnn(C)c4)c(OC4CCOC4)nc23)c1 (racemic) | – | – | – | 0.2 | > 5000 | inhibition at 5 µM (CYP3A4): 15%
CNC(=O)c1cc(-c2cnc3cc(-c4cnn(C)c4)c(O[C@H]4CCOC4)nn23)c(F)c(C(F)F)c1 | 800 | 443 | 619 | – | – | –
CNC(=O)c1cncc(-c2cnn3cc(-c4cnn(C(C)C)c4)c(O[C@H]4CCOC4)nc23)c1 | – | – | – | 1.5 | 9000 | Activity (Mus musculus): Active; solubility [6]: 17 µg/mL (≈ 38 µM); solubility [7]: > 400 µg/mL
CNC(=O)c1cc(C)c(F)c(-c2cnc3cc(-c4cnn(C)c4)c(O[C@H]4CCOC4)nn23)c1 | 1390 | 293 | 1660 | – | – | –
CNC(=O)c1cc(F)c(F)c(-c2cnc3cc(-c4cnn(C)c4)c(O[C@H]4CCOC4)nn23)c1 | 1740 | 285 | 1450 | 5.7 | 3900 | AUC at 24 h [8]: 33.6 µM·h; Vd [9]: 0.35 L/kg; Cmax [10]: 6.17 µM; bioavailability [11]: 54%; half-life [12]: 5.3 h; QH [13]: 3.3%; solubility [6]: 118 µg/mL (≈ 260 µM); solubility [7]: > 400 µg/mL
[2H]C([2H])([2H])NC(=O)c1cncc(-c2cnn3cc(-c4cnn(C(C)C)c4)c(O[C@H]4CCOC4)nc23)c1 | – | – | – | 2 | > 25000 | AUC at 24 h [8]: 5.11 µM·h; Vd [9]: 1.6 L/kg; Cmax [10]: 2.3 µM; bioavailability [11]: 82%; half-life [12]: 1.7 h; QH [13]: 35%; IC50 [14]: 145 nM; solubility [6]: 18 µg/mL (≈ 40 µM); solubility [7]: 679 µg/mL (≈ 1510 µM)
CNC(=O)c1cccc(-c2cnc3cc(-c4cnn(C)c4)c(O[C@H]4CCOC4)nn23)c1 | 66 | 118 | 82 | – | – | –
CCNC(=O)c1cncc(-c2cnn3cc(-c4cnn(CC)c4)c(O[C@H]4CCOC4)nc23)c1 | – | – | – | 0.6 | > 25000 | –
CNC(=O)c1ccc(F)c(-c2cnc3cc(-c4cnn(C)c4)c(OC)nn23)c1 | 348 | 11 | 180 | – | – | –
CNC(=O)c1cccc(-c2cnc3cc(-c4cnn(C)c4)c(OC)nn23)c1 | 38 | 58 | – | – | – | –
CNC(=O)c1cncc(-c2cnc3cc(-c4cnn(C)c4)c(OC4CCOC4)nn23)c1 (configuration not stated) | 370 | 7300 | 284 | – | > 5000 | inhibition at 5 µM (CYP3A4): 0%
